The Dmax is the largest share of the target that was removed. Low values mean a partial loss of target, high ones a fuller loss of target. By DC50 is commonly meant the concentration at which degradation of the target reaches its halfway point.

Structures are written as SMILES.

The target in the experiment is T1, AsPC-1 HiBiT-KRASG12D (Homo sapiens, UniProt P01116, G12D).
T1 construct: insert the HiBiT tag onto the N-terminus of one or more of the endogenous KRAS alleles; endogenous in cells; host or cells: AsPC-1 (ATCC CRL-1682), CRISPR-Cas9 knock-in clone, one tagged allele
T1 sequence (P01116 1-188 isoform P01116-2 G12D): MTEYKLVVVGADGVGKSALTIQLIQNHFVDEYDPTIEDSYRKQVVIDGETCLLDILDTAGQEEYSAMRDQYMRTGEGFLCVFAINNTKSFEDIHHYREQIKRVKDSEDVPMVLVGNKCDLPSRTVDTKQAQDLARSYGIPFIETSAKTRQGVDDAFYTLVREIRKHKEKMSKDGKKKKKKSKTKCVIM
Description: HiBiT degradation assay (G12D), AsPC-1 HiBiT-KRASG12D cells. The experiment is classed as cell-based. To be noted: 24 hours treatment; for Dmax: ASPC1, AsPC-1 HiBiT-KRASG12D cells, maximum degradation observed; for DC50: AsPC-1 HiBiT-KRASG12D cells, HiBiT luminescence. In outline: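 Steps: treat HiBiT-KRASG12D AsPC-1 cells with compound for 24 hours; add alamar blue to 1× and incubate 4 hours to assess viability; wash with PBS; add HiBiT lytic detection reagent, incubate 45 minutes at room temperature; read luminescence. Viability fluorescence is normalized to DMSO wells.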

The molecule `CCc1cccc2cc(O)cc(-c3ncc4c(N5CC6CCC(C5)N6)nc(OC[C@@]56CCCN5[C@H](COc5cc([C@@H](C(=O)N7C[C@H](O)C[C@H]7C(=O)N[C@@H](C)c7ccc(-c8scnc8C)cc7)C(C)C)on5)CC6)nc4c3F)c12` [Compound 30, (2S,4R)-1-[(2S)-2-(3-{[(3S,7aS)-7a-{[(4-{3,8-diazabicyclo[3.2.1]octan-3-yl}-7-(8-ethyl-3-hydroxynaphthalen-1-yl)-8-fluoropyrido[4,3-d]pyrimidin-2-yl)oxy]methyl}-hexahydro-1H-pyrrolizin-3-yl]methoxy}-1,2-oxazol-5-yl)-3-methylbutanoyl]-4-hydroxy-N-[(1S)-1-[4-(4-methyl-1,3-thiazol-5-yl)phenyl]ethyl]pyrrolidine-2-carboxamide] came in with a Dmax of 20 to 60% and a DC50 of less than 0.6 µM. In turn, `C#Cc1c(F)ccc2cc(O)cc(-c3ncc4c(N5CC6CCC(C5)N6)nc(OCCN5CCC(CCC6CN(c7cc([C@H](C(=O)N8C[C@H](O)C[C@H]8C(=O)N[C@@H](C)c8ccc(-c9scnc9C)cc8)C(C)C)on7)C6)CC5)nc4c3F)c12` [Compound 184] yielded a Dmax of 80 to 100% and a 50% degradation concentration (DC50) of less than 0.6 µM. For `CCc1cccc2cc(O)cc(-c3ncc4c(N5CC6CCC(C5)N6)nc(OCCN5CCN(c6cc([C@H](C(=O)N7C[C@H](O)C[C@H]7C(=O)N[C@@H](C)c7ccc(-c8scnc8C)cc7)C(C)C)on6)CC5)nc4c3F)c12` (relative stereo) [Compound 134, (2S,4R)-1-[(2R*)-2-[3-(4-{2-[(4-{3,8-diazabicyclo[3.2.1]octan-3-yl}-7-(8-ethyl-3-hydroxynaphthalen-1-yl)-8-fluoropyrido[4,3-d]pyrimidin-2-yl)oxy]ethyl}piperazin-1-yl)-1,2-oxazol-5-yl]-3-methylbutanoyl]-4-hydroxy-N-[(1S)-1-[4-(4-methyl-1,3-thiazol-5-yl)phenyl]ethyl]pyrrolidine-2-carboxamide], the Dmax was 20 to 60% and the DC50 fell in the range of 1 to 3 µM. `CCc1cccc2cc(O)cc(-c3ncc4c(N5CC6CCC(C5)N6)nc(OC[C@]56CCCN5[C@H](COC(=O)N5CCC(Oc7cc([C@@H](C(=O)N8C[C@H](O)C[C@H]8C(=O)N[C@@H](C)c8ccc(-c9scnc9C)cc8)C(C)C)on7)CC5)CC6)nc4c3F)c12` [Compound 119, [(3S,7aR)-7a-{[(4-{3,8-diazabicyclo[3.2.1]octan-3-yl}-7-(8-ethyl-3-hydroxynaphthalen-1-yl)-8-fluoropyrido[4,3-d]pyrimidin-2-yl)oxy]methyl}-hexahydro-1H-pyrrolizin-3-yl]methyl 4-({5-[(2S)-1-[(2S,4R)-4-hydroxy-2-{[(1S)-1-[4-(4-methyl-1,3-thiazol-5-yl)phenyl]ethyl]carbamoyl}pyrrolidin-1-yl]-3-methyl-1-oxobutan-2-yl]-1,2-oxazol-3-yl}oxy)piperidine-1-carboxylate]: the Dmax fell in the range of 20 to 60% and the half-maximal degradation concentration (DC50) is less than 0.6 µM. In turn, `C#Cc1c(F)ccc2cc(O)cc(-c3ncc4c(N5CC6CCC(C5)N6)nc(OC[C@]56CCCN5[C@H](COc5cc([C@@H](C(=O)N7C[C@H](O)C[C@H]7C(=O)N[C@@H](C)c7ccc(-c8scnc8C)cc7)C(C)C)on5)CC6)nc4c3F)c12` [Compound 312, (2S,4R)-1-[(2S)-2-[3-[[(3S,8R)-8-[[4-(3,8-diazabicyclo[3.2.1]octan-3-yl)-7-(8-ethynyl-7-fluoro-3-hydroxy-1-naphthyl)-8-fluoro-pyrido[4,3-d]pyrimidin-2-yl]oxymethyl]-1,2,3,5,6,7-hexahydropyrrolizin-3-yl]methoxy]isoxazol-5-yl]-3-methyl-butanoyl]-4-hydroxy-N-[(1S)-1-[4-(4-methylthiazol-5-yl)phenyl]ethyl]pyrrolidine-2-carboxamide] returned a Dmax of 20 to 60% and a DC50 of 1 to 3 µM. Taken in the same sequence, the figures for `CCc1cccc2cc(O)cc(-c3ncc4c(N5CC6CCC(C5)N6)nc(OCCN5CC[C@H]6[C@H](CCN6c6cc([C@H](C(=O)N7C[C@H](O)C[C@H]7C(=O)N[C@@H](C)c7ccc(-c8scnc8C)cc7)C(C)C)on6)C5)nc4c3F)c12` (relative stereo) [Compound 73, (2S,4R)-1-[(2R*)-2-{3-[(3aR**,7aR***)-5-{2-[(4-{3,8-diazabicyclo[3.2.1]octan-3-yl}-7-(8-ethyl-3-hydroxynaphthalen-1-yl)-8-fluoropyrido[4,3-d]pyrimidin-2-yl)oxy]ethyl}-octahydro-1H-pyrrolo[3,2-c]pyridin-1-yl]-1,2-oxazol-5-yl}-3-methylbutanoyl]-4-hydroxy-N-[(1S)-1-[4-(4-methyl-1,3-thiazol-5-yl)phenyl]ethyl]pyrrolidine-2-carboxamide] were 80 to 100% and less than 0.6 µM. As to `CCc1cccc2cc(O)cc(-c3ncc4c(N5CC6CCC(C5)N6)nc(OCCN5CCC(F)(CC6CCN(c7cc([C@@H](C(=O)N8C[C@H](O)C[C@H]8C(=O)N[C@@H](C)c8ccc(-c9scnc9C)cc8)C(C)C)on7)CC6)CC5)nc4c3F)c12` [Compound 240], the DC50 was greater than 3 µM. `CCc1cccc2cc(O)cc(-c3ncc4c(N5CC6CCC(C5)N6)nc(OC[C@@]56CCCN5[C@H](COC(=O)N5CCC(Oc7cc([C@@H](C(=O)N8C[C@H](O)C[C@H]8C(=O)N[C@@H](C)c8ccc(-c9scnc9C)cc8)C(C)C)on7)CC5)CC6)nc4c3F)c12` [Compound 118, [(3S,7aS)-7a-{[(4-{3,8-diazabicyclo[3.2.1]octan-3-yl}-7-(8-ethyl-3-hydroxynaphthalen-1-yl)-8-fluoropyrido[4,3-d]pyrimidin-2-yl)oxy]methyl}-hexahydro-1H-pyrrolizin-3-yl]methyl 4-({5-[(2S)-1-[(2S,4R)-4-hydroxy-2-{[(1S)-1-[4-(4-methyl-1,3-thiazol-5-yl)phenyl]ethyl]carbamoyl}pyrrolidin-1-yl]-3-methyl-1-oxobutan-2-yl]-1,2-oxazol-3-yl}oxy)piperidine-1-carboxylate] returned a Dmax of 20 to 60% and a DC50 of 0.6 to 1 µM. The matching figures for `CCc1cccc2cc(O)cc(-c3ncc4c(N5CC6CCC(C5)N6)nc(OCCN5CCC6(CC5)CC(Oc5cc([C@@H](C(=O)N7C[C@H](O)C[C@H]7C(=O)N[C@@H](C)c7ccc(-c8scnc8C)cc7)C(C)C)on5)C6)nc4c3F)c12` [Compound 232]: 20 to 60% and 1 to 3 µM. With `C#Cc1c(F)ccc2cc(O)cc(-c3ncc4c(N5CC6CCC(C5)N6)nc(OCCN5CCC(C6CCN(c7cc([C@H](C(=O)N8C[C@H](O)C[C@H]8C(=O)N[C@@H](C)c8ccc(-c9scnc9C)cc8)C(C)C)on7)CC6)CC5)nc4c3F)c12` [Compound 176, (2S,4R)-1-[(2R)-2-[3-(1′-{2-[(4-{3,8-diazabicyclo[3.2.1]octan-3-yl}-7-(8-ethynyl-7-fluoro-3-hydroxynaphthalen-1-yl)-8-fluoropyrido[4,3-d]pyrimidin-2-yl)oxy]ethyl}-[4,4′-bipiperidin]-1-yl)-1,2-oxazol-5-yl]-3-methylbutanoyl]-4-hydroxy-N-], the Dmax was in the range of 80 to 100% and the DC50 was less than 0.6 µM. Molecule `CCc1cccc2cc(O)cc(-c3ccc4c(N5CC6CCC(C5)N6)nc(OC[C@]56CCCN5[C@H](COC(=O)N5CCN(c7cc(C(C(=O)N8C[C@H](O)C[C@H]8C(=O)N[C@@H](C)c8ccc(-c9scnc9C)cc8)C(C)C)on7)CC5)CC6)nc4c3F)c12` (single isomer, unassigned) [Compound 267] showed a Dmax of 80 to 100% and a DC50 of less than 0.6 µM. The molecule `CCc1cccc2cc(O)cc(-c3ncc4c(N5CC6CCC(C5)N6)nc(OCCN5CCC(Oc6cc([C@@H](C(=O)N7C[C@H](O)C[C@H]7C(=O)N[C@@H](C)c7ccc(-c8scnc8C)cc7)C(C)C)on6)CC5)nc4c3F)c12` (relative stereo) [Compound 139, (2S,4R)-1-[(2R*)-2-{3-[(1-{2-[(4-{3,8-diazabicyclo[3.2.1]octan-3-yl}-7-(8-ethyl-3-hydroxynaphthalen-1-yl)-8-fluoropyrido[4,3-d]pyrimidin-2-yl)oxy]ethyl}piperidin-4-yl)oxy]-1,2-oxazol-5-yl}-3-methylbutanoyl]-4-hydroxy-N-[(1S)-1-[4-(4-methyl-1,3-thiazol-5-yl)phenyl]ethyl]pyrrolidine-2-carboxamide] returned a Dmax of less than 20% and a DC50 of 1 to 3 µM. `CCc1cccc2cc(O)cc(-c3ncc4c(N5CC6CCC(C5)N6)nc(OC[C@@H]5CC[C@@H](COC(=O)N6CCN(c7cc([C@@H](C(=O)N8C[C@H](O)C[C@H]8C(=O)N[C@@H](C)c8ccc(-c9scnc9C)cc8)C(C)C)on7)CC6)N5C)nc4c3F)c12` [Compound 289, [(2S,5S)-5-[[4-(3,8-diazabicyclo[3.2.1]octan-3-yl)-7-(8-ethyl-3-hydroxy-1-naphthyl)-8-fluoro-pyrido[4,3-d]pyrimidin-2-yl]oxymethyl]-1-methyl-pyrrolidin-2-yl]methyl 4-[5-[(1S)-1-[(2S,4R)-4-hydroxy-2-[[(1S)-1-[4-(4-methylthiazol-5-yl)phenyl]ethyl]carbamoyl]pyrrolidine-1-carbonyl]-2-methyl-propyl]isoxazol-3-yl]piperazine-1-carboxylate] displayed a Dmax of 20 to 60% and a DC50 of 1 to 3 µM. Regarding `CCc1cccc2cccc(-c3ncc4c(N5CC6CCC(C5)N6)nc(OC[C@]56CCCN5[C@H](COc5cc([C@H](C(=O)N7C[C@H](O)C[C@H]7C(=O)N[C@@H](C)c7ccc(-c8scnc8C)cc7)C(C)C)on5)CC6)nc4c3F)c12` [Compound 309, (2S,4R)-1-[(2R)-2-[3-[[(3S,8R)-8-[[4-(3,8-diazabicyclo[3.2.1]octan-3-yl)-7-(8-ethyl-1-naphthyl)-8-fluoro-pyrido[4,3-d]pyrimidin-2-yl]oxymethyl]-1,2,3,5,6,7-hexahydropyrrolizin-3-yl]methoxy]isoxazol-5-yl]-3-methyl-butanoyl]-4-hydroxy-N-[(1S)-1-[4-(4-methylthiazol-5-yl)phenyl]ethyl]pyrrolidine-2-carboxamide], the greatest degradation seen (Dmax) is less than 20% and the DC50 was less than 0.6 µM.

Values taken from patent US20250206732A1, “COMPOUNDS AND METHODS FOR THE TARGETED DEGRADATION OF KRAS” (Arvinas Operations, Inc., priority 2022, published 2025).
